Results: PubChem BioAssay AID179 (DTP/NCI, 2004)
The source made the active and inactive calls.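 How the source made its calls: active means compounds giving half or more protection of infected cells from virus-caused growth loss, again on retest; inactive means the rest.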 Where a SMILES comes first, the peptide text is derived from it.

Test system: CEM cells HIV-1 protection, formazan growth assay
Experiment: NCI AIDS Antiviral Assay
Settings: for IC50: measured here: growth of uninfected CEM cells
Outline: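 Soluble formazan readout of cell growth; CEM cells ± HIV-1; 5 drug concs. ≥50% protection → retest; ≥50% again = moderately active; reproducible 100% = confirmed active.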

| SMILES | EC50 [µM] | IC50 [µM] | outcome |
| --- | --- | --- | --- |
| CCOCc1c(C(=O)NCCO)[n+](=O)c2ccccc2n1[O-] | > 44.7 | > 44.7 |  |
| CCOC(=O)c1c(OC)cc2n(c1=O)Cc1cc3ccccc3nc1-2 | > 10 | > 10 |  |
| CCOC(=O)C1=NN(c2ccccc2)C(=O)/C1=C\N1C(=O)/C(=C/c2cccc(OC)c2O)SC1=S | > 100 | 53.7 |  |
| CN(C)c1ccc(C=C2C(=O)N(c3ccccc3)N(c3ccccc3)C2=O)cc1 | > 100 | 69.2 |  |
| Br/C=C(\Br)C[N+]12CN3CN(CN(C3)C1)C2 | > 200 | 110 |  |
| COc1ccc(-c2c(O)c3c(OC)cc(OC)cc3oc2=O)cc1 | > 200 | 158 |  |
| O=C(O)CNCc1c2ccccc2nc2ccccc12 |  |  | inactive |
| Cc1ccc2c(c1)-c1c(C#N)c(N)nc(-c3ccccc3)c1CCS2(=O)=O | > 200 | 2.09 |  |
| O=S(=O)(NC1CCCCC1)c1ccc2c(c1)OCCOCCOCCOCCO2 | > 200 | > 200 |  |
| CCOC(=O)/C(F)=C/c1ccc(C)cc1 | > 126 | > 126 |  |
| COc1ccc2c(c1)C(O)NC(=O)O2 (stereo not drawn) | > 200 | 49 |  |
| CC(C)CC(NC(=O)C(Cc1ccccc1)NC(=O)[C@H]1CC[C@H](NC(=O)C(Cc2ccc(OC(C)(C)C)cc2)NC(=O)OC(C)(C)C)C1)C(N)=O (stereo partly drawn) |  |  | inactive |
| O=C(Sc1c(-c2ccccc2)c(=O)n(-c2ccccc2)c(=S)n1-c1ccccc1)c1ccc(Cl)cc1 | > 200 | 19.5 |  |
| O=S(=O)(O)c1cc(N=Nc2ccc(O)c3ccccc23)ccc1/C=C/c1ccc(N=Nc2ccc(O)c3ccccc23)cc1S(=O)(=O)O | 13.5 | 50.1 |  |
| Cc1ccnc(NS(=O)(=O)c2ccc(N=Cc3ccccc3O)cc2)n1 | > 200 | > 200 |  |
| Cc1ccc(Nc2nc(NS(=O)(=O)c3cc(C)c(Cl)cc3S)n(C)n2)cc1 | > 200 | 105 |  |
| N#Cc1c(N2CCCC2)[nH]c(=O)n(Cc2ccccc2)c1=S | > 200 | 115 |  |
| Nc1nc(N)c(-c2ccc(Cl)cc2)c(CCC(=O)Nc2cccc(C(F)(F)F)c2)n1 | > 12 | > 12 |  |
| CN(C)Cc1cc(N=Nc2ccccc2)ccc1O | > 200 | 102 |  |
| Cc1cc(O)cc2c1O[C@@]1(C)CCC3[C@@]4(C)CC[C@H](O)C(C)(C)C4CC[C@@]3(C)[C@H]1C2 (stereo partly drawn) |  |  | inactive |
| Cc1cc2c(cc1O)CC[C@@H]1[C@@H]2CC[C@]2(C)[C@@H](O)CC[C@@H]12 | > 200 | 4.07 |  |

| SMILES | EC50 [µM] | IC50 [µM] | outcome |
| --- | --- | --- | --- |
| O=C1c2ccccc2-c2oc(=O)c3ccccc3c21 | > 40.7 | > 40.7 |  |
| O=C(O)CCCCCNC(=O)CCC(CN(CC(=O)OCc1ccccc1)CC(=O)OCc1ccccc1)N(CC(=O)OCc1ccccc1)CC(=O)OCc1ccccc1 (stereo not drawn) |  |  | inactive |
| Cc1cc(=O)oc2cc(OCCCOc3ccc4c(C)cc(=O)oc4c3)ccc12 | > 3.72 | > 3.72 |  |
| COC(=O)C1CCCN1 (stereo not drawn) |  |  | inactive |
| CC1COC(C)(C)P(c2ccccc2)C1 (stereo not drawn) | > 1120 | > 1120 |  |
| O=[N+]([O-])c1ccc(Cl)c(C2SCc3nc4ccccc4n32)c1 (stereo not drawn) | > 39.8 | 33.1 |  |
| c1csc(-c2cscc2-c2cccs2)c1 | > 200 | 37.2 |  |
| CNC(=O)N(C)CN(C)C(=O)NC | > 479 | 229 |  |
| CCCCCC/C(CC(=O)CCC(=O)NCCc1ccccc1)=N\Nc1ccc([N+](=O)[O-])cc1[N+](=O)[O-] | > 97.7 | > 97.7 |  |
| COc1ccc2c(=O)c(C)c(-c3ccccc3)oc2c1CN(C)C |  |  | inactive |
| CC(C)OC1NC(=O)Oc2ccccc21 (stereo not drawn) | > 200 | 132 |  |
| COC(=O)[C@H](Cc1ccccc1)NC(=O)/C(=C/C(C)C)NC(=O)[C@H](CCSC)NC=O | > 550 | > 100 |  |
| COC(=O)[C@@H]1CSC(=S)N1C(=O)C[C@H]1CC=CC[C@H]1CC(=O)Sc1ccccc1 |  |  | inactive |
| O=C(O)c1cc(C(=C(c2cc(Cl)c(O)c(C(=O)O)c2)c2cc(Cl)c(O)c(C(=O)O)c2)c2cc(Cl)c(O)c(C(=O)O)c2)cc(Cl)c1O | 87.1 | 95.5 |  |
| N#C/C(=C\c1cc(O)c(O)c(O)c1)C(=O)NCCCNC(=O)/C(C#N)=C/c1cc(O)c(O)c(O)c1 | > 132 | 21.4 |  |
| O=C1c2ccc(O)c(O)c2C(=O)c2c(O)ccc(O)c21 | > 63.1 | 11.7 |  |
| COc1cc(/C=C2\SC(=S)N(/C=C3\C(=O)C=C(C)OC3=O)C2=O)cc(OC)c1OC | > 200 | 18.2 |  |
| C/C(=N\N)C(CN1CCCCC1)C(c1ccccc1)c1c(O)c2ccccc2oc1=O (stereo not drawn) | > 107 | 69.2 |  |
| COc1cc(Nc2nc(NS(=O)(=O)c3cc(C)c(Cl)cc3S)n[nH]2)cc(OC)c1OC | 112 | 794 |  |
| COC(CC1(/C=C/O[Si](C(C)C)(C(C)C)C(C)C)C(=O)N(COCC[Si](C)(C)C)c2ccccc21)OC (stereo not drawn) | > 200 | 36.3 |  |
| O=c1ssc2ncccc12 | > 295 | > 100 |  |

| SMILES | EC50 [µM] | IC50 [µM] | outcome |
| --- | --- | --- | --- |
| CC(=O)Nc1nc2c(=O)c3ccccc3sc2s1 |  |  | inactive |
| CC(N)C(=O)NCC(=O)NC(CO)C(=O)NC(CCC(N)=O)C(=O)NC(CCC(=O)O)C(=O)N1CCCC1C(=O)NC(CCCCN)C(=O)NC(CCC(=O)O)C(=O)NC(CCC(N)=O)C(=O)NC(CO)C(=O)NC(CO)C(=O)NC(Cc1ccc(O)cc1)C(=O)NC(CO)C(=O)NC(Cc1cnc[nH]1)C(=O)NC(CO)C(=O)O (stereo not drawn) (H-AGSQEPKEQSSYSHS-OH; configuration not given here) | > 100 | > 100 |  |
| O=C(c1cccnc1)c1cc(-c2ccccn2)c(=O)n2ccccc12 | > 200 | > 200 |  |
| Cc1ccc(C(c2c(O)c3ccccc3n(-c3ccccc3)c2=O)c2c(O)c3ccccc3n(-c3ccccc3)c2=O)cc1 | > 12.6 | > 12.6 |  |
| N=c1oc2cc(O)ccc2cc1C(=O)NCc1ccccc1 | > 200 | 20 |  |
| COC(=O)C(CCC1(C)OCCO1)C(C)=O (stereo not drawn) | 31.6 | 251 |  |
| CN1CCC2(CC1)OCCN2CCO | > 1260 | > 1260 |  |
| COc1ccc(C(c2ccccc2)C(C)C(=O)c2c(C)cc(C)cc2C)cc1 (stereo not drawn) | > 19.5 | > 19.5 |  |
| O=C(O)CCNS(=O)(=O)c1ccc(NC(=O)c2ccccc2)cc1 |  |  | inactive |
| CCOC(=O)/C=C/c1ccc([N+](=O)[O-])cc1 | > 32.4 | > 32.4 |  |
| [N-]=[N+]=NC1CC(n2cc(Cc3ccccc3)c(=O)[nH]c2=O)OC1CO (stereo not drawn) |  |  | inactive |
| [N-]=[N+]=Nc1c([N+](=O)[O-])c(=O)n2c3c(cccc13)CCC2 |  |  | inactive |
| Cc1ccc(C(=O)n2nc(C)c(N=Nc3ccccc3)c2C)cc1 |  |  | inactive |
| O=C1Cc2c(-c3ccccc3)cc(-c3cccc(Cl)c3)nc2-c2ccccc2N1 |  |  | inactive |
| [NH-]CC[NH-].[NH-]CC[NH-].[NH-]CC[NH-].[Ni+2].[O-][Cl+3]([O-])([O-])O | > 200 | 77.6 |  |
| O=[N+]([O-])c1cc2ccc1OCc1cccc(n1)COc1ccc(cc1[N+](=O)[O-])C=NCCCCCCCCN=C2 | > 200 | > 200 |  |
| O=C1/C(=C/c2ccc3c(c2)CCC3)Cc2cc3c(cc21)CCC3 | > 200 | > 200 |  |
| CCOC(=O)C(NC(=O)Nc1ccc(Cl)cc1)(OC)C(F)(F)F (stereo not drawn) |  |  | inactive |
| O=[N+]([O-])c1cccc(C2=NC(=S)NC(c3cc(Cl)ccc3O)C2)c1 (stereo not drawn) | > 200 | 141 |  |
| O=C1Nc2ccc(cc2)Cc2ccc(cc2)NC(=O)N2CCN(CC2)C(=O)Nc2ccc(cc2)Cc2ccc(cc2)NC(=O)N2CCN1CC2 | > 10.7 | > 10.7 |  |
| CC(=O)OCC(OC(C)=O)C(OC(C)=O)C(C=NN(C(C)=O)S(=O)(=O)c1ccc(/C=C2\NC(=O)NC2=O)cc1)OC(C)=O (stereo not drawn) | > 200 | 97.7 |  |

| SMILES | EC50 [µM] | IC50 [µM] | outcome |
| --- | --- | --- | --- |
| CCCCCC=C(c1ccc(OC)c(C(=O)OC)c1)c1ccc(OC)c(C(=O)OC)c1 | > 200 | 27.5 |  |
| CC1=C(C(=O)Nc2ccc(Cl)c(Cl)c2)C(c2ccco2)C(C(=O)Nc2ccc(Cl)c(Cl)c2)=C(C)N1 | > 33.9 | 13.8 |  |
| C=CCc1cc(OC)c2c(c1)C(O)CC(c1ccc(OC)c(OC)c1)O2 (stereo not drawn) | > 263 | > 263 |  |
| Fc1cccc(Cl)c1C1SCc2nc3ccccc3n21 (stereo not drawn) | 0.0479 | 3.8 |  |
| COC1/C=C/OC2(C)Oc3c(C)c(O)c4c(O)c(cc(OCC(=O)N5CCOCC5C)c4c3C2=O)NC(=O)/C(C)=C/C=C/C(C)C(O)C(C)C(O)C(C)C(OC(C)=O)C1C (stereo not drawn) | > 200 | 36.3 |  |
| CC(C)(C)NC(NC(C)(C)C)=C(/C=C(/Cl)[N+](=O)[O-])[N+](=O)[O-] | > 200 | 162 |  |
| CN(C)c1ccc2c(c1)-c1cc(N(C)C)ccc1C2=CC=C1C(=O)NC(=S)NC1=O | > 12.3 | > 12.3 |  |
| O=C(CC(C(=O)c1ccsc1)c1ccccc1)c1cccs1 (stereo not drawn) | > 200 | 39.8 |  |
| COC(=O)c1c(C)cccc1C1CN=NC12Cc1cc(C)cc(C)c1C2=O (stereo not drawn) | > 200 | 33.1 |  |
| CC/C(Cl)=N\OC(=O)Nc1ccc(OC)cc1 | > 20 | 6.76 |  |
| COC1CCC(OS(C)(=O)=O)C(C)O1 (stereo not drawn) | > 200 | 110 |  |
| [Co].[O-]c1cccnc1C=Nc1ccccc1.[OH3+] | > 240 | 35.5 |  |
| Cn1cc(NC(=O)c2cc(NC(=O)Nc3cc(C(=O)Nc4cc(C(=O)NCCC(=N)N)n(C)c4)n(C)c3)cn2C)cc1C(=O)NCCC(=N)N | 15.1 | 77.6 |  |
| CCN(CC)C1=CC(=O)C(=O)c2cccnc21 |  |  | inactive |
| N#CC1Cc2cc3c(cc21)OCO3 (stereo not drawn) | > 200 | > 200 |  |
| Nc1nc2c(nc(N)n2Cc2ccccc2)c(=O)[nH]1 | > 74.1 | > 74.1 |  |
| COc1c(C)c2nc3ccccc3[nH]c2c2c(=O)ccnc12 | > 100 | > 100 |  |
| CN1CN(c2ccccc2)C2(CCN(C(=O)OC(C)(C)C)CC2)C1=O | > 100 | > 100 |  |
| C=C1CCC2C(C)(CO)C(O)CCC2(C)C1C/C=C1/CCOC1=O (stereo not drawn) |  |  | inactive |
